Experimental data reported in patent US9409905B2, “Antibacterial compounds and methods for use” (PTC THERAPEUTICS, INC., priority 2011, dated 2016).
Converted amounts (≈) assume the structure as drawn.

Key:
[1] = test system: Neisseria meningitidis (N. meningitidis) 13090; experiment: Antibacterial activity, MIC (Table 8); assay type: cell-based
Text: (§1) The antibacterial activity from a microbroth dilution method may be presented as the minimum inhibitory concentration (MIC in μg/mL). The MIC value is the lowest concentration of drug which prevents macroscopically visible growth under test conditions.
(§2) Antibacterial activity of test compounds against the Gram-negative bacteria Haemophilus influenzae (H. influenzae) 49247 is shown in Table 6, Moraxella catarrhalis (M. catarrhalis) 25238 is shown in Table 7 and Neisseria meningitidis (N. meningitidis) 13090 is shown in Table 8.

E. coli ELZ4251 = experiment: Antibacterial activity, MIC, multi-drug resistant clinical isolate (Table 3); assay type: cell-based; conditions: Escherichia coli
How it was run: (§3)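 Compounds were serially diluted in broth microdilution format and growth was scored visually; the MIC is the lowest concentration at which no macroscopically visible growth occurred, expressed in μg/mL.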

E. coli ELZ4000 = experiment: as above; assay type: cell-based; conditions: Escherichia coli, ELZ4000, read-out: MIC ELZ4000
How it was run: as §3

A. baumannii MXX2240 = experiment: Antibacterial activity, MIC, resistant strain (Table 4); assay type: cell-based; conditions: Acinetobacter baumannii, MXX2240; resistant A. baumannii MMX2240, multi-drug resistant clinical isolate; read-out: MIC, MMX2240
How it was run: (§4)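 Values are MICs in μg/mL, read as the lowest compound concentration at which no growth is visible by eye. They come from a microbroth dilution method.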

K. pneumoniae MXX1232 = experiment: as above; assay type: cell-based; conditions: Klebsiella pneumoniae, MXX1232; resistant K. pneumoniae MMX1232, multi-drug resistant clinical isolate; read-out: MIC, MMX1232
How it was run: as §4

E. coli LZ3111 = experiment: Antibacterial activity, MIC, quinolone resistant strain (Table 2); assay type: cell-based; conditions: Escherichia coli, LZ3111, read-out: MIC LZ3111
How it was run: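 MIC values (μg/mL) came from a microbroth dilution assay, scored as the lowest drug concentration at which no growth was visible by eye.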

[2] = test system: Pseudomonas aeruginosa (P. aeruginosa) 27853; experiment: Antibacterial activity, MIC (Table 5); assay type: cell-based; conditions: P. aeruginosa 27853, read-out: MIC, 27853
How it was run: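 Values are MICs in μg/mL, read as the lowest concentration at which no growth is visible by eye. They were determined by a microbroth dilution method.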

E. coli 25922 = experiment: Antibacterial activity, microbroth dilution MIC (Table 1); assay type: cell-based, Escherichia coli; conditions: Escherichia coli; microbroth dilution; control Gram-negative E. coli 25922 strain; read-out: MIC, 25922
How it was run: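 Microbroth dilution was used. MIC, in μg/mL, is the lowest drug concentration preventing macroscopically visible growth under the test conditions.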

[3] = test system: Acinetobacter baumannii (A. baumannii) BAA747; experiment: Antibacterial activity, MIC (Table 4); assay type: cell-based; conditions: A. baumannii BAA747, read-out: MIC, BAA747
How it was run: as §4

[4] = test system: Moraxella catarrhalis (M. catarrhalis) 25238; experiment: Antibacterial activity, MIC (Table 7); assay type: cell-based
Text: as §1, §2

[5] = test system: Staphylococcus aureus (S. aureus) 29213; experiment: Antibacterial activity, microbroth dilution MIC (Table 1); assay type: cell-based; conditions: microbroth dilution, Gram-positive S. aureus 29213, read-out: MIC, 29213
How it was run: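 In a microbroth dilution test, the minimum inhibitory concentration was defined as the lowest compound level preventing growth seen by eye, and was given in μg/mL.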

[6] = test system: Escherichia coli (E. coli) BAS849; experiment: as above; assay type: cell-based; conditions: microbroth dilution, super sensitive Gram-negative E. coli BAS849, read-out: MIC, BAS849
How it was run: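 Growth inhibition by microbroth dilution. MIC = lowest μg/mL with no visible growth. Strain 25922 is the control Gram-negative; BAS849 is hypersensitive.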

[7] = test system: Haemophilus influenzae (H. influenzae) 49247; experiment: Antibacterial activity, MIC (Table 6); assay type: cell-based
Text: as §1, §2

[8] = test system: Klebsiella pneumoniae (K. pneumoniae) 35657; experiment: Antibacterial activity, MIC (Table 4); assay type: cell-based; conditions: K. pneumoniae 35657, read-out: MIC, 35657
How it was run: as §4

Row | SMILES | MIC [1] [µg/mL] | MIC (E. coli ELZ4251) [µg/mL] | MIC (E. coli ELZ4000) [µg/mL] | MIC (A. baumannii MXX2240) [µg/mL] | MIC (K. pneumoniae MXX1232) [µg/mL] | MIC (E. coli LZ3111) [µg/mL] | MIC [2] [µg/mL] | MIC (E. coli 25922) [µg/mL] | MIC [3] [µg/mL] | MIC [4] [µg/mL] | MIC [5] [µg/mL] | MIC [6] [µg/mL] | MIC [7] [µg/mL] | MIC [8] [µg/mL]
1 | CCc1c(-c2ccc3c(c2)cc(CNC)n3C)[nH]c(=O)c(C(=O)O)c1O [Cpd 203, 5-ethyl-4-hydroxy-6-(1-methyl-2-((methylamino)methyl)-1H-indol-5-yl)-2-oxo-1,2-dihydropyridine-3-carboxylic acid] | < 1 | 1 to 3.5 (≈ 2.81 to 9.85 µM) | 3.5 to 12.5 (≈ 9.85 to 35.2 µM) | 3.5 to 12.5 (≈ 9.85 to 35.2 µM) | 12.5 to 150 (≈ 35.2 to 422 µM) | 1 to 3.5 (≈ 2.81 to 9.85 µM) | 1 to 3.5 (≈ 2.81 to 9.85 µM) | < 1 | < 1 | < 1 | 3.5 to 12.5 (≈ 9.85 to 35.2 µM) | < 1 | < 1 | 
2 | CCc1cc(C(=O)O)c(=O)[nH]c1-c1ccc2c(cnn2C)c1 [Cpd 41, 5-ethyl-6-(1-methyl-1H-indazol-5-yl)-2-oxo-1,2-dihydropyridine-3-carboxylic acid] | < 1 | 12.5 to 150 (≈ 42 to 505 µM) | 12.5 to 150 (≈ 42 to 505 µM) | 12.5 to 150 (≈ 42 to 505 µM) | 12.5 to 150 (≈ 42 to 505 µM) | 12.5 to 150 (≈ 42 to 505 µM) | 12.5 to 150 (≈ 42 to 505 µM) | 3.5 to 12.5 (≈ 11.8 to 42 µM) | 12.5 to 150 (≈ 42 to 505 µM) |  | 12.5 to 150 (≈ 42 to 505 µM) | < 1 | < 1 | 12.5 to 150 (≈ 42 to 505 µM)
3 | CCc1cc(C(=O)O)c(=O)[nH]c1-c1ccc2c(c1)cc(C)n2C [Cpd 37, 6-(1,2-dimethyl-1H-indol-5-yl)-5-ethyl-2-oxo-1,2-dihydropyridine-3-carboxylic acid] | < 1 | 12.5 to 150 (≈ 40.3 to 483 µM) | 12.5 to 150 (≈ 40.3 to 483 µM) |  |  | 12.5 to 150 (≈ 40.3 to 483 µM) |  | < 1 |  |  | 1 to 3.5 (≈ 3.22 to 11.3 µM) | < 1 | < 1 | 
4 | CCc1c(-c2ccc3c(ccn3CC)c2)[nH]c(=O)c(C(=O)O)c1O [Cpd 10, 5-ethyl-6-(1-ethyl-1H-indol-5-yl)-4-hydroxy-2-oxo-1,2-dihydropyridine-3-carboxylic acid] | < 1 | 12.5 to 150 (≈ 38.3 to 460 µM) | 12.5 to 150 (≈ 38.3 to 460 µM) |  |  | 12.5 to 150 (≈ 38.3 to 460 µM) |  | 3.5 to 12.5 (≈ 10.7 to 38.3 µM) |  |  | 1 to 3.5 (≈ 3.06 to 10.7 µM) | < 1 | < 1 | 
5 | C=CCNCc1cc2cc(-c3[nH]c(=O)c(C(=O)O)c(O)c3CC)ccc2n1C.Cl [Cpd 243, 6-(2-((allylamino)methyl)-1-methyl-1H-indol-5-yl)-5-ethyl-4-hydroxy-2-oxo-1,2-dihydropyridine-3-carboxylic acid hydrochloride] | < 1 | 1 to 3.5 | 3.5 to 12.5 |  | 12.5 to 150 | 1 to 3.5 | 3.5 to 12.5 | < 1 | < 1 | < 1 | 3.5 to 12.5 | < 1 | < 1 | < 1
6 | CCc1cc(C(=O)O)c(=O)[nH]c1-c1ccc2c(ccn2C)c1 [Cpd 21, 5-ethyl-6-(1-methyl-1H-indol-5-yl)-2-oxo-1,2-dihydropyridine-3-carboxylic acid] | < 1 | 12.5 to 150 (≈ 42.2 to 506 µM) | 12.5 to 150 (≈ 42.2 to 506 µM) | 12.5 to 150 (≈ 42.2 to 506 µM) | 12.5 to 150 (≈ 42.2 to 506 µM) | 12.5 to 150 (≈ 42.2 to 506 µM) | 12.5 to 150 (≈ 42.2 to 506 µM) | < 1 | < 1 |  | 3.5 to 12.5 (≈ 11.8 to 42.2 µM) | < 1 | < 1 | < 1
7 | CC(C)c1cc(C(=O)O)c(=O)[nH]c1-c1ccc2c(ccn2C)c1 [Cpd 33, 5-isopropyl-6-(1-methyl-1H-indol-5-yl)-2-oxo-1,2-dihydropyridine-3-carboxylic acid] | < 1 | 12.5 to 150 (≈ 40.3 to 483 µM) | 12.5 to 150 (≈ 40.3 to 483 µM) |  |  | 12.5 to 150 (≈ 40.3 to 483 µM) |  | 3.5 to 12.5 (≈ 11.3 to 40.3 µM) |  |  | 12.5 to 150 (≈ 40.3 to 483 µM) | < 1 | < 1 | 
